Several values for one entry are separate records, joined by “and”; a condition that tells them apart may be missing. Equal entries are not always repeated. Where two headings read alike, the source gives them in different places.
System: ciliary muscle
Assay: Atropine inhibition of acetylcholine-induced ciliary muscle contraction (Magnus tube)
Assay type: cell-based, rabbit
Conditions: for inhibition at 1 µM: Oryctolagus cuniculus, atropine 10^-6 mol/L vs control; for Tension of Contraction (g), Tables 2 and 6 / Tension of Contraction (g), Tables 4 and 8 / Tension of Contraction (g), Tables 3 and 7: individual enucleated organs 1-2
Protocol: The ciliary muscle obtained in EXAMPLE 1 was suspended in a Magnus tube filled with Krebs-Henseleit solution bubbled through with a mixed gas of 5% carbon dioxide and 95% oxygen. Krebs-Henseleit solution was prepared as follows. A-solution, B-solution, C-solution, water and D-solution were mixed at a ratio of 1:1:1:6:1 in the following order. First A-solution, B-solution and C-solution were mixed in the above ratio followed by the addition of distilled water. After rigorous mixing, D-solution was added. The solution thus prepared was shielded from light and used after heating at 37 degrees C.
The sample in the Magnus tube was suspended at a loading weight of 0.4 g using a tension transducer (Isometric Transducer, FD Pick-up TB-611 T type, made by Nihon Kohden Corporation, Tokyo, Japan). After equilibration for 30 minutes, acetylcholine (made by SIGMA, St. Louis, Mo.) at a final concentration of 10-4 mol/L was added for the first stimulation. After tension reached a plateau value, the sample was washed with a buffer until the tension returned to the baseline. This procedure was repeated nine times.
The tension of the sample upon each stimulation was recorded by the data collection software (VISUAL DESIGNER ver. 2.3, made by INTELLIGENT INSTRUMENTATION, Tucson, Ariz.) via the tension transducer, an input box (JD-112S type, made by Nihon Kohden Corporation), an amplifier for pressure strain (AP-621G type, made by Nihon Kohden Corporation) and an A.D. conversion board (PCI-20428W, made by INTELLIGENT INSTRUMENTATION).
The net tension was calculated by subtracting the baseline tension from the tension observed after stimulation, and this was defined as the contraction rate. The first net tension, i.e., tension at the first stimulation—baseline tension, was set as a contraction rate of 100%.
In addition, the sample in the Magnus tube was treated with atropine at a final concentration of 10-6 mol/L and subjected to acetylcholine stimulation as described above, in order to confirm whether the tension of the sample was in fact due to stimulation by acetylcholine.

[1] = atropine 10^-6 mol/L, baseline tension data set
[2] = atropine 10^-6 mol/L, net tension data set
[3] = atropine 10^-6 mol/L, tension after acetylcholine stimulation data set

Structure (SMILES): CN1[C@@H]2CC[C@H]1C[C@@H](OC(=O)C(CO)c1ccccc1)C2 (stereo partly shown) [atropine]
- inhibition at 1 µM (baseline tension data set, read-out: Inhibition Value (%), Table 6): 84.6%
- inhibition at 1 µM (net tension data set, read-out: Inhibition Value (%), Table 8): 75.6%
- inhibition at 1 µM (tension after acetylcholine stimulation data set, read-out: Inhibition Value (%), Table 7): 82%
- contraction of the ciliary muscle elicited by acetylcholine (atropine 10^-6 mol/L): inhibited
- Tension of Contraction, Average ± standard deviation, Table 6 [1]: 0.0245 ± 0.0024 g
- Tension of Contraction (g), Tables 2 and 6 [1]: 0.0228 g and 0.0262 g
- Tension of Contraction (g), Tables 2 and 6 (atropine 10^-6 mol/L, baseline tension data set, listed as Artopine): 0.0228 g and 0.0262 g
- Tension of Contraction, Average ± standard deviation, Table 8 [2]: 0.0156 ± 0.0076 g
- Tension of Contraction (g), Tables 4 and 8 [2]: 0.0102 g and 0.0210 g
- Tension of Contraction (g), Tables 4 and 8 (atropine 10^-6 mol/L, net tension data set, listed as Artopine): 0.0102 g and 0.0210 g
- Tension of Contraction, Average ± standard deviation, Table 7 [3]: 0.0401 ± 0.0100 g
- Tension of Contraction (g), Tables 3 and 7 [3]: 0.0330 g and 0.0472 g
- Tension of Contraction (g), Tables 3 and 7 (atropine 10^-6 mol/L, tension after acetylcholine stimulation data set, listed as Artopine): 0.0330 g and 0.0472 g

Reference: patent publication US20030077571A1, “Experimental model and method for evaluation of therapeutic agents against asthenopia” (priority 2001, published 2003)
